Data published in PubChem BioAssay AID248 (DTP/NCI, 2004).
Several values for one entry are separate records, joined by “and”; a condition that tells them apart may be missing. Identical values can stand only once. Toxic doses and inconclusive results are not listed. Cut-off read from the data, not from the text of the source: active = T/C of 150% or more; inactive = T/C below 125%.

System: L1210 leukemia ip in BDF1 mice, survival T/C
Assay: NCI In Vivo Anticancer Drug Screen. Data for tumor model L1210 Leukemia (intraperitoneal) in B6D2F1 (BDF1) mice
Settings: endpoint: mean survival time, higher = longer survival
Method in brief: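 Mice bearing the transplanted tumor received compound or vehicle. Survival of the treated group was divided by that of the vehicle-treated control group to give the ratio.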

[1] = dose: 100.0 mg/kg/injection, schedule: Q01DX001 (ip), vehicle: saline
[2] = dose: 200.0 mg/kg/injection, schedule: Q01DX001 (ip), vehicle: saline
[3] = dose: 400.0 mg/kg/injection, schedule: Q01DX001 (ip), vehicle: saline
[4] = dose: 400.0 mg/kg/injection, schedule: Q01DX001 (ip), vehicle: carboxymethylcellulose (CMC)
[5] = dose: 100.0 mg/kg/injection, schedule: Q04DX003 (ip), vehicle: Klucel (hydroxypropylcellulose) (HPC)
[6] = dose: 200.0 mg/kg/injection, schedule: Q04DX003 (ip), vehicle: Klucel (hydroxypropylcellulose) (HPC)
[7] = dose: 100.0 mg/kg/injection, schedule: Q01DX001 (ip), vehicle: carboxymethylcellulose (CMC)
[8] = dose: 200.0 mg/kg/injection, schedule: Q01DX001 (ip), vehicle: carboxymethylcellulose (CMC)
[9] = dose: 50.0 mg/kg/injection, schedule: Q01DX009 (ip), vehicle: Klucel (hydroxypropylcellulose) (HPC)
[10] = dose: 100.0 mg/kg/injection, schedule: Q01DX009 (ip), vehicle: Klucel (hydroxypropylcellulose) (HPC)
[11] = dose: 200.0 mg/kg/injection, schedule: Q01DX009 (ip), vehicle: Klucel (hydroxypropylcellulose) (HPC)
[12] = dose: 100.0 mg/kg/injection, schedule: Q04DX003 (ip), vehicle: saline with Tween-80
[13] = dose: 200.0 mg/kg/injection, schedule: Q04DX003 (ip), vehicle: saline with Tween-80
[14] = dose: 400.0 mg/kg/injection, schedule: Q04DX003 (ip), vehicle: saline with Tween-80
[15] = dose: 25.0 mg/kg/injection, schedule: Q01DX009 (ip), vehicle: Klucel (hydroxypropylcellulose) (HPC)
[16] = dose: 100.0 mg/kg/injection, schedule: Q04DX003 (ip), vehicle: saline
[17] = dose: 200.0 mg/kg/injection, schedule: Q04DX003 (ip), vehicle: saline
[18] = dose: 400.0 mg/kg/injection, schedule: Q04DX003 (ip), vehicle: saline

Measured: T/C

CCN(CC)CC(=O)NCC(CCN1CCCC1)(c1cccc2ccccc12)C(C)C (stereo not given)
inactive: dose: 25.0 mg/kg/injection, schedule: Q01DX009 (ip), vehicle: saline 101 % of control | dose: 50.0 mg/kg/injection, schedule: Q01DX009 (ip), vehicle: saline 98 % of control | dose: 100.0 mg/kg/injection, schedule: Q01DX009 (ip), vehicle: saline 101 % of control

CCN1C(=O)CSC1=S
inactive: [1] 101 % of control | dose: 100.0 mg/kg/injection, schedule: Q04DX003 (ip), vehicle: other 92 % of control and 96 % of control | [2] 101 % of control | dose: 200.0 mg/kg/injection, schedule: Q04DX003 (ip), vehicle: other 110 % of control and 89 % of control | [3] 102 % of control | dose: 400.0 mg/kg/injection, schedule: Q04DX003 (ip), vehicle: other 96 % of control

O=NN(CCCl)C(=O)Nc1ccc2c(c1)-c1ccccc1C2
active: dose: 118.0 mg/kg/injection, schedule: Q01DX009 (ip), vehicle: carboxymethylcellulose (CMC) 188 % of control and 196 % of control | [4] 159 % of control | dose: 600.0 mg/kg/injection, schedule: Q01DX001 (ip), vehicle: carboxymethylcellulose (CMC) 150 % of control
inactive: dose: 118.0 mg/kg/injection, schedule: Q01DX001 (ip), vehicle: carboxymethylcellulose (CMC) 121 % of control | dose: 177.0 mg/kg/injection, schedule: Q01DX009 (ip), vehicle: carboxymethylcellulose (CMC) 122 % of control | dose: 266.0 mg/kg/injection, schedule: Q01DX009 (ip), vehicle: carboxymethylcellulose (CMC) 88 % of control | dose: 400.0 mg/kg/injection, schedule: Q01DX009 (ip), vehicle: carboxymethylcellulose (CMC) 92 % of control and 113 % of control

O=C(Nc1ccccc1Cl)Oc1ccc(Cl)cc1Cc1ccccc1
inactive: dose: 100.0 mg/kg/injection, schedule: Q01DX009 (ip), vehicle: saline with Tween-80 91 % of control | dose: 100.0 mg/kg/injection, schedule: Q04DX002 (ip), vehicle: saline with Tween-80 100 % of control | dose: 200.0 mg/kg/injection, schedule: Q01DX009 (ip), vehicle: saline with Tween-80 90 % of control | dose: 200.0 mg/kg/injection, schedule: Q04DX002 (ip), vehicle: saline with Tween-80 91 % of control | dose: 400.0 mg/kg/injection, schedule: Q04DX002 (ip), vehicle: saline with Tween-80 91 % of control

O=[N+]([O-])c1cc(Br)cc2c1nc(Cl)c1ccccc12
inactive: [5] 98 % of control | [6] 101 % of control | dose: 400.0 mg/kg/injection, schedule: Q04DX003 (ip), vehicle: Klucel (hydroxypropylcellulose) (HPC) 98 % of control

COC(=O)C(Cc1c[nH]c2ccccc12)NC(=O)C(NC(=O)OC(C)(C)C)C(C)C (stereo not given)
inactive: [7] 100 % of control | [8] 94 % of control | [4] 92 % of control

COCC/C(COC)=N/N
inactive: dose: 50.0 mg/kg/injection, schedule: Q01DX001 (ip), vehicle: saline 103 % of control | [1] 103 % of control | [2] 122 % of control

COc1cc(C(=O)Cl)cc(OC)c1OC(C)=O
inactive: [1] 93 % of control | [2] 89 % of control | [3] 91 % of control

Nc1ncnc2sc3c(c12)CCc1ccccc1-3
inactive: [9] 92 % of control | [10] 98 % of control | [11] 95 % of control

c1ccc(-c2c3ccccc3c(-c3ccccc3)c3c2ccc2ccccc23)cc1
inactive: [9] 91 % of control | [11] 91 % of control

CCCCCCCCCCNC(=O)C[n+]1cccc(C(=O)NC)c1
inactive: dose: 12.5 mg/kg/injection, schedule: Q04DX003 (ip), vehicle: saline 95 % of control | dose: 25.0 mg/kg/injection, schedule: Q04DX003 (ip), vehicle: saline 89 % of control

C(=N\N1CCN(/N=C/c2ccc3c(c2)OCO3)CC1)/c1ccc2c(c1)OCO2
inactive: [1] 104 % of control | [2] 102 % of control | [3] 96 % of control

CCOC(=O)c1cnc(SC)nc1Nc1cccc(C)c1
inactive: [12] 86 % of control | [13] 91 % of control | [14] 86 % of control

Cc1c(NC(=O)Nc2cccc(C(F)(F)F)c2)c(=O)n(-c2ccccc2)n1C
inactive: [15] 88 % of control | [9] 86 % of control | [11] 96 % of control

COc1ccc(P(=NS(=O)(=O)c2ccc(C)cc2)(c2ccc(OC)cc2)c2ccc(OC)cc2)cc1
inactive: [5] 91 % of control | [6] 96 % of control

NC1=NC(CCc2ccccc2)N(c2ccc3ccccc3c2)C(N)=N1 (stereo not given)
inactive: dose: 4.7 mg/kg/injection, schedule: Q01DX009 (ip), vehicle: saline sonified 96 % of control | dose: 9.4 mg/kg/injection, schedule: Q01DX009 (ip), vehicle: saline sonified 103 % of control | dose: 18.8 mg/kg/injection, schedule: Q01DX001 (ip), vehicle: saline 91 % of control

CC1Cc2c(cccc2[N+](=O)[O-])C1=O (stereo not given)
inactive: [12] 101 % of control | [13] 96 % of control | [14] 107 % of control

NC1(C(=O)O)CCC(N)(C(=O)O)CC1 (stereo not given)
inactive: dose: 75.0 mg/kg/injection, schedule: Q01DX001 (ip), vehicle: saline 110 % of control | dose: 150.0 mg/kg/injection, schedule: Q01DX001 (ip), vehicle: saline 100 % of control

COc1ccc(Cl)cc1NC(=O)C(Br)C(Br)C(=O)O (stereo not given)
inactive: dose: 100.0 mg/kg/injection, schedule: Q01DX009 (ip), vehicle: other 96 % of control | dose: 200.0 mg/kg/injection, schedule: Q01DX009 (ip), vehicle: other 100 % of control

CCOC(=O)/C(=C\c1ccccc1)C(=O)c1ccccc1
inactive: [1] 97 % of control | [16] 97 % of control | [2] 93 % of control | [17] 92 % of control | [3] 88 % of control | [18] 101 % of control

COc1ccc(Br)cc1/C=C\C=O
inactive: [7] 87 % of control | [8] 105 % of control | [4] 100 % of control

CCCCCCCCCCCC(c1ccccc1)[N+](C)(C)C (stereo not given)
inactive: dose: 0.5 mg/kg/injection, schedule: Q01DX001 (ip), vehicle: saline 103 % of control | dose: 1.0 mg/kg/injection, schedule: Q01DX001 (ip), vehicle: saline 94 % of control | dose: 1.0 mg/kg/injection, schedule: Q01DX009 (ip), vehicle: saline 91 % of control | dose: 2.0 mg/kg/injection, schedule: Q01DX001 (ip), vehicle: saline 100 % of control | dose: 2.0 mg/kg/injection, schedule: Q01DX009 (ip), vehicle: saline 109 % of control | dose: 4.0 mg/kg/injection, schedule: Q01DX001 (ip), vehicle: saline 96 % of control | dose: 4.0 mg/kg/injection, schedule: Q01DX009 (ip), vehicle: saline 110 % of control | dose: 8.0 mg/kg/injection, schedule: Q01DX001 (ip), vehicle: saline 97 % of control

Cc1[nH]ccc2c(C)c3nc4c5ccccc5ccc4c3cc12
inactive: dose: 60.0 mg/kg/injection, schedule: Q01DX Z (ip), vehicle: carboxymethylcellulose (CMC) 98 % of control | dose: 120.0 mg/kg/injection, schedule: Q01DX Z (ip), vehicle: carboxymethylcellulose (CMC) 98 % of control | dose: 240.0 mg/kg/injection, schedule: Q01DX Z (ip), vehicle: carboxymethylcellulose (CMC) 90 % of control

CCCCNC(=O)Nc1ccc(O)c(C(=O)O)c1
inactive: [15] 110 % of control | [9] 93 % of control | [10] 100 % of control

Cn1c(CC(O)(C(F)(F)F)C(F)(F)F)c(C(O)(C(F)(F)F)C(F)(F)F)c2ccccc21
inactive: dose: 5.0 mg/kg/injection, schedule: Q01DX009 (ip), vehicle: saline with Tween-80 100 % of control | dose: 10.0 mg/kg/injection, schedule: Q01DX009 (ip), vehicle: saline with Tween-80 94 % of control

O=c1[nH]c2ccccc2c(=O)n1CCCN1CCN(c2cccc(Cl)c2)CC1
inactive: [10] 108 % of control | dose: 100.0 mg/kg/injection, schedule: Q04DX002 (ip), vehicle: Klucel (hydroxypropylcellulose) (HPC) 111 % of control | [11] 108 % of control | dose: 200.0 mg/kg/injection, schedule: Q04DX002 (ip), vehicle: Klucel (hydroxypropylcellulose) (HPC) 114 % of control | dose: 400.0 mg/kg/injection, schedule: Q01DX009 (ip), vehicle: Klucel (hydroxypropylcellulose) (HPC) 108 % of control | dose: 400.0 mg/kg/injection, schedule: Q04DX002 (ip), vehicle: Klucel (hydroxypropylcellulose) (HPC) 104 % of control

O=C(c1ccccc1)C(Cl)Cl
inactive: [16] 106 % of control | [17] 96 % of control | [18] 98 % of control
